Measurements reported in patent US6410525B1, “Carbapenem derivatives, utilization thereof and intermediate compounds of the same” (Kyoto Pharmaceutical Industries, Ltd., priority 1998, dated 2002).

Experiment: Oral absorption test: concentration of hydrolyzed carbapenem compound (A) in plasma after oral administration
Format: in vivo
Settings: mice, 100 mg/kg orally, hydrolyzed carbapenem compound (A) by HPLC
Procedure: The compound of the present invention (100 mg/kg, compound of Example 13) was orally administered to mice (3 per group) and the concentration of hydrolyzed carbapenem compound (A) in plasma was determined at 0.25, 0.5, 1.0, 2.0 and 3.0 hours later by HPLC.
The compound of the present invention (100 mg/kg, compound of Example 15) was orally administered to mice (3 per group) and the concentration of hydrolyzed carbapenem compound (A) in plasma was determined at 0.25, 0.5, 1.0, 2.0 and 3.0 hours later by HPLC.

| SMILES | Average concentration in plasma (0.25 hr) [µg/mL] | Average concentration in plasma (0.5 hr) [µg/mL] | Average concentration in plasma (1.0 hr) [µg/mL] | Average concentration in plasma (2.0 hr) [µg/mL] | Average concentration in plasma (3.0 hr) [µg/mL] |
| --- | --- | --- | --- | --- | --- |
| CCC(=O)OCOC(=O)N1C[C@@H](SC2=C(C(=O)OCOC(=O)C(C)(C)C)N3C(=O)[C@H]([C@@H](C)O)[C@H]3[C@H]2C)C[C@H]1C(=O)N(C)C [Example 13] | 9.5 | 4.8 | 1.9 | 0.6 | 0.2 |
| CC(C)C(=O)OCOC(=O)N1C[C@@H](SC2=C(C(=O)OCOC(=O)C(C)(C)C)N3C(=O)[C@H]([C@@H](C)O)[C@H]3[C@H]2C)C[C@H]1C(=O)N(C)C [Example 15, pivaloyloxymethyl (1R,5S,6S)-2-[(3S,5S)-(5-N,N-dimethylaminocarbonyl-1-isobutyryloxymethyloxycarbonyl)pyrrolidin-3-ylthio]-6-[(1R)-1-hydroxyethyl]-1-methylcarbapen-2-em-3-carboxylate] | 8.6 | 10.1 | 4.8 | 1.4 | 0.3 |
